Consider 17 compounds from paper PMC9811682 (Frontiers in Chemistry, 2022).

Like-named read-outs stand apart in the source and are kept apart here.

One may read the IC50 as the concentration needed to halve the response being measured. In general, Ki refers to the dissociation constant of the complex between target and ligand, obtained from inhibition or displacement.

The target of experiment [1] is T1, AChE (EC 3.1.1.7, from electric eel) (Electrophorus electricus, UniProt O42275).
T1 construct: purchased Aladdin (Shanghai, China)
T1 sequence (O42275 24-633): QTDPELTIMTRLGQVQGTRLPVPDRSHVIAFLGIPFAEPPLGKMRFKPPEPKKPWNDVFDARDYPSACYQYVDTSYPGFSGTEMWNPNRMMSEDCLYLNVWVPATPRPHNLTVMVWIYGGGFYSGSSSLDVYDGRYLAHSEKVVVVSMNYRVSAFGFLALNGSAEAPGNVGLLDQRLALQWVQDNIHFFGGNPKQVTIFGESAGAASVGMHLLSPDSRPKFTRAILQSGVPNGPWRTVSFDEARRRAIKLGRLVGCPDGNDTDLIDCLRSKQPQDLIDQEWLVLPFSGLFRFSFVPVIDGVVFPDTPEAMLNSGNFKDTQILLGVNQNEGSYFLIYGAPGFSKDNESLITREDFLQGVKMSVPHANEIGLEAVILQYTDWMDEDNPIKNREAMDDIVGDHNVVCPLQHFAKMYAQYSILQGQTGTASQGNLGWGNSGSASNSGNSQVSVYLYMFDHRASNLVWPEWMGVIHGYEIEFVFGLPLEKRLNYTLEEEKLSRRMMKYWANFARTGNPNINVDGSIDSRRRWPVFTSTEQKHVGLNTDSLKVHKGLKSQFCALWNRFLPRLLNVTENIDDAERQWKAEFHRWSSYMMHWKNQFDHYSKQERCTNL
As to the kind of experiment: In vitro AChE inhibitory activity assay (modified Ellman's method). The format is biochemical. To be noted: tested at 100 μM, triplicate. On the procedure:
(§1) The inhibitory activities against AChE (EC 3.1.1.7) and BChE (EC 3.1.1.8) of the fungal samples and test compounds were analyzed following Ellman’s method ([Ellman et al., 1961]) with modifications. AChE (EC 3.1.1.7, from electric eel), BChE (EC 3.1.1.8, from equine serum), acetylthiocholine iodide (ATCI), butyrylthiocholine iodide (BTCI), and 5,5′-dithiobis (2-nitrobenzoic acid) (DTNB) were purchased from Aladdin (Shanghai, China). AChE and BChE solutions were prepared with water (0.2 units/ml). ATCI and BTCI solutions (10 mM) were prepared with deionized water before using. A DTNB solution (10 mM) was prepared in a 0.1 M, pH 8.0 solution of potassium dihydrogen phosphate (1.36 g, 10 mmol) in 100 ml of water (PBS). The fungal samples for screening were diluted to 1.0 mg/ml with methanol. The test compounds were dissolved in methanol (10 mM) as stock solutions. Subsequently, at least five different concentrations of each compound (double ratio dilution with methanol) were used to determine the half maximal inhibitory concentration (IC50). The tests were performed using 96-well plates. First, 160 μl of PBS, 2 μl of the test sample solution, 20 μl of AChE or BChE, and 10 μl of DTNB were added and mixed in each well, and then preincubated at 37°C for 10 min. After the addition of 10 μl of ATCI or BTCI, the reaction was initiated and incubated at 37°C for another 10 min. Then, the absorbance was measured at 412 nm. The wells with 2 μl of methanol replacing the test sample solution was used to determine 100% of the enzyme activity, and 20 μl of water replacing the enzyme solution was used to determine the blank value. All of the tests for each sample were performed in triplicate. The inhibition curve was fitted by plotting the inhibition rate vs. the logarithm of the test compound concentration. The IC50 values were calculated using Microsoft Excel software, and the data were expressed as the mean ± SD. The inhibition rate was calculated using the formula: IR% = [(Ac-As)]/[(Ac-Ab)] × 100%, where Ab denotes the absorbance of the blank control without the enzyme solution, Ac represents the absorbance of the control without the sample solution, and As denotes the absorbance of the sample.

The target in experiment [2] is T2, BChE (EC 3.1.1.8, from equine serum) (Equus caballus, UniProt P81908).
T2 construct: BChE (EC 3.1.1.8, from equine serum); purchased Aladdin (Shanghai, China); host or cells: equine serum
T2 sequence (P81908 whole entry): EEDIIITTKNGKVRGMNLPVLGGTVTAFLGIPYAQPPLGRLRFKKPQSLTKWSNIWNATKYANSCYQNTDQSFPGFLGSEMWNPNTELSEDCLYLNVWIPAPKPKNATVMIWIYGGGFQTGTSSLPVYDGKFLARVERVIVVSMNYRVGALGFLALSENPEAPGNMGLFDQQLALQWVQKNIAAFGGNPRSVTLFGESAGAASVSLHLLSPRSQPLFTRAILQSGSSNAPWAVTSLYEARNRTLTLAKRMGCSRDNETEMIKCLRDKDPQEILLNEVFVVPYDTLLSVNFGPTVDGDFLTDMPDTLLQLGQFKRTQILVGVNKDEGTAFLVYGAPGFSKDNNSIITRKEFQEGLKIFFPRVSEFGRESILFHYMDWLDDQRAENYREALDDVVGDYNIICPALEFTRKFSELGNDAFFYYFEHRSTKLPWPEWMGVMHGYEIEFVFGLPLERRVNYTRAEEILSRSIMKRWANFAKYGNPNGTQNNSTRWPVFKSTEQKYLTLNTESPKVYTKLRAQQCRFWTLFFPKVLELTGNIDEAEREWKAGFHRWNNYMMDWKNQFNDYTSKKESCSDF
The experiment can be described thus: biochemical. It counts as biochemical. The conditions noted are these: for BChE IR, %: tested at 100 μM, triplicate. On the procedure:
The fresh spore suspensions of SGP-1 and the seven other strains were inoculated into an Erlenmeyer flask (250 ml) containing 100 ml of liquid medium (glucose 2%, maltose 1%, mannitol 2%, glutamic acid 1%, peptone 0.5%, and yeast extract 0.3% in distilled water) and fermented at 28°C for 12 days on a rotary shaker at 200 rpm. To each fermentation broth was added 200 ml of ethyl acetate (EtOAc), and extraction was performed with the assistance of ultrasonication (40 kHz) for 30 min. The EtOAc solutions were removed in vacuo at 37°C to produce the EtOAc extracts. Each fungal EtOAc extract was dissolved in methanol at a concentration of 100.0 mg/ml, and was further diluted to a […] solution used for an in vitro BChE inhibitory activity assay. A sample of strain SGP-1 was analyzed using an HPLC-photo-diode array detector (PDAD)-UV with an analytical Kromasil C18 column (5 μm, 100 Å, 4.6 mm × 250 mm; Akzo Nobel) on an Agilent 1100 HPLC system equipped with a PDAD (G1316A). The extraction solution in methanol (100.0 mg/ml) was filtered with a 0.45-μm membrane, and then injected (20 μl) into the column, followed by elution with an MeOH-H2O linear gradient (20%→100% MeOH in 20 min followed by 5 min with isocratic 100% MeOH) mobile phase (flow rate 1 ml/min). During the separation procedure, the constituents of the emerging chromatographic peaks were collected in Eppendorf tubes with 2 s of delay. Each eluate was fixed to a volume of 200 μl, which was then used for the BChE inhibitory activity assay. The acquired PDAD data, including the UV spectra of peaks, were processed using Agilent OpenLAB software.
as §1

Experiment [3] deals with T2, BChE (EC 3.1.1.8, from equine serum). As to the kind of experiment: Kinetic study of BChE inhibition (Lineweaver-Burk and secondary plots). It counts as biochemical. On the procedure: Kinetic studies were performed using the same protocol as the BChE inhibitory activity assay, and the substrate BTCI was used in a series of concentrations, 0.2, 0.4, 0.5, 0.6, and 0.7 mM. The test compound concentrations were set according to the inhibition IC50 of each compound. The enzymatic reaction was extended to 15 min before the detection of the absorbance. Lineweaver–Burk plots were generated to obtain the kinetic parameters, Michaelis constant (Km) and maximum velocity (Vmax), according to which inhibition modes were determined.

The target of a further experiment is α-glucosidase. The conditions noted are these: earlier study quoted in discussion; no reference given; cited from earlier work.
The mark [4] stands for this setting: sample concentration that led to 50% enzyme activity loss, mean ± SD, read-out: BChE IC50.
The mark [5] stands for this setting: BChE, competitive inhibition, secondary plot of K vs [I], read-out: Ki (inhibition constant).

Regarding `CC(C)=CCc1cc(/C=C2\OC(=O)C(c3ccc(O)c(CC=C(C)C)c3)=C2O)ccc1O` [Aspulvinone H, aspulvinone H, reference compound], the “AChE IR, %” value in experiment [1] turned out to be 9.6 ± 3.4%. Also, in experiment [2] (setting [4]), the IC50 is over 100 µM. Moreover, in experiment [2], the “BChE IR, %” value is recorded as 6.5 ± 2.6%.
The corresponding values for `COC(=O)C1(O)OC(=O)C(Cc2ccc(O)c(CCC(C)(C)OC)c2)=C1c1ccc(O)cc1` (centres unmarked) [Compound 1, methyl-2-hydroxy-4-(4-hydroxy-3-(3-methoxy-3-methylbutyl)benzyl)-3-(4-hydroxyphenyl)-5-oxo-2,5-dihydrofuran-2-carboxylate] are 11.2 ± 3.6%, over 100 µM and 15.6 ± 2.3%.
Regarding `COC(=O)C1(O)OC(=O)C(Cc2ccc(O)c(CCC(C)(C)O)c2)=C1c1ccc(O)cc1` (centres unmarked) [Compound 2, methyl-2-hydroxy-4-(4-hydroxy-3-(3-hydroxy-3-methylbutyl)benzyl)-3-(4-hydroxyphenyl)-5-oxo-2,5-dihydrofuran-2-carboxylate], in experiment [1], the “AChE IR, %” value is on record as 7.7 ± 1.0%. For the same compound, the IC50 in experiment [2] (setting [4]) was over 100 µM. For the same compound, the “BChE IR, %” value in experiment [2] turned out to be 3.2 ± 3.6%.
As to `COC(=O)[C@@]1(O)OC(=O)C(Cc2ccc3c(c2)CCC(C)(C)O3)=C1c1ccc(O)cc1` [Compound 3, flavipesolide B], in experiment [1], the “AChE IR, %” value worked out at 19.6 ± 4.2%. For the same compound, the half-inhibitory concentration (IC50) in experiment [2] (setting [4]) is over 100 µM. Moreover, the “BChE IR, %” value in experiment [2] is recorded as 22.5 ± 3.1%.
For the compound `COC(=O)[C@@]1(O)OC(=O)C(Cc2ccc(O)c(CC=C(C)C)c2)=C1c1ccc(O)cc1` [Compound 4, butyrolactone VIII], in experiment [3] (setting [5]), the inhibition constant Ki stood at 23.6 µM. For the same compound, the “AChE IR, %” value in experiment [1] came out at 11.9 ± 1.0%. In addition, the IC50 in experiment [2] (setting [4]) is 45.8 ± 6.9 µM. Also, the “BChE IR, %” value in experiment [2] was 67.3 ± 2.8%.
The matching figures for `COC(=O)C1(Cc2ccc(O)c(CC=C(C)C)c2)OC(=O)C(O)=C1c1ccccc1` (centres unmarked) [Compound 5, versicolactone B]: 38.2 µM, 10.4 ± 1.9%, 44.3 ± 3.7 µM and 64.4 ± 3.2%.
In experiment [3], `COC(=O)[C@@]1(Cc2ccc(O)c(CC=C(C)C)c2)OC(=O)C(O)=C1c1ccc(O)cc1` [Compound 6, butyrolactone I] displayed a Ki of 19.3 µM. Moreover, the 50% inhibitory concentration (IC50) at α-glucosidase is 1.52 µM. Besides, in experiment [1], the “AChE IR, %” value was −6.7 ± 3.6%. In addition, in experiment [2], the half-maximal inhibitory concentration (IC50) is 35.5 ± 1.3 µM and the “BChE IR, %” value was found to be 68.0 ± 4.1%.
In the case of `CCOC(=O)C1(Cc2ccc(O)c(CC=C(C)C)c2)OC(=O)C(O)=C1c1ccc(O)cc1` (centres unmarked) [Compound 7, butyrolactone VII], in experiment [3] (setting [5]), the Ki stood at 12.3 µM. Also, the “AChE IR, %” value in experiment [1] came out at 11.7 ± 1.4%. In addition, the IC50 in experiment [2] (setting [4]) turned out to be 18.4 ± 2.5 µM. For the same compound, the “BChE IR, %” value in experiment [2] turned out to be 76.0 ± 3.5%.
As for `CC(C)=CCc1cc(CC2OC(=O)C(O)=C2c2ccc(O)cc2)ccc1O` (centres unmarked) [Compound 8, 3-hydroxy-5-[[4-hydroxy-3-(3-methyl-2-buten-1-yl)phenyl]methyl]-4-(4-hydroxyphenyl)-2(5H)-furanone], the Ki in experiment [3] (setting [5]) was determined as 35.7 µM. Moreover, the “AChE IR, %” value in experiment [1] worked out at 14.2 ± 0.5%. For the same compound, in experiment [2] (setting [4]), the IC50 was 45.1 ± 7.2 µM. The “BChE IR, %” value in experiment [2] came to 60.9 ± 0.6%.
As to `COC(=O)C1(Cc2ccc(O)cc2)OC(=O)C(O)=C1c1ccc(O)cc1` (centres unmarked) [Compound 9, butyrolactone II], the “AChE IR, %” value in experiment [1] was found to be 9.6 ± 0.5%. Also, the IC50 in experiment [2] (setting [4]) was over 100 µM. Besides, the “BChE IR, %” value in experiment [2] is 19.9 ± 6.0%.
The matching figures for `CC1(C)CCc2cc(CC3OC(=O)C(O)=C3c3ccc(O)cc3)ccc2O1` (centres unmarked) [Compound 10, 5-[(3,4-dihydro-2,2-dimethyl-2H-1-benzopyran-6-yl)methyl]-3-hydroxy-4-(4-hydroxyphenyl)-2(5H)-furanone]: 23.2 ± 1.1%, over 100 µM and 33.3 ± 7.5%.
The matching figures for `COC(=O)C1(Cc2ccc3c(c2)CCC(C)(C)O3)OC(=O)C(O)=C1c1ccc(O)cc1` (centres unmarked) [Compound 11, aspernolide A]: −0.1 ± 0.7%, over 100 µM and 25.4 ± 3.7%.
The corresponding values for `COC(=O)C1(Cc2ccc(O)c(CCC(C)(C)O)c2)OC(=O)C(O)=C1c1ccc(O)cc1` (centres unmarked) [Compound 12, aspernolide B] are 2.2 ± 1.5%, over 100 µM and 13.4 ± 1.3%.
As for `COC(=O)C1(Cc2ccc(O)c(CCC(C)(C)OC)c2)OC(=O)C(O)=C1c1ccc(O)cc1` (centres unmarked) [Compound 13, aspernolide C], in experiment [1], the “AChE IR, %” value was 3.9 ± 0.9%. Besides, in experiment [2] (setting [4]), the concentration for half-maximal inhibition (IC50) was over 100 µM. Also, the “BChE IR, %” value in experiment [2] was found to be 22.6 ± 5.3%.
Regarding `COC(=O)C1(Cc2ccc(O)c(CC3OC3(C)C)c2)OC(=O)C(O)=C1c1ccc(O)cc1` (centres unmarked) [Compound 14, butyrolactone III], the “AChE IR, %” value in experiment [1] is −4.2 ± 0.3%. Moreover, in experiment [2], the half-maximal inhibitory concentration (IC50) was over 100 µM and the “BChE IR, %” value is -12.3 ± 4.6%.
Turning to `COC(=O)C1(Cc2ccc3c(c2)CC(C(C)(C)O)O3)OC(=O)C(O)=C1c1ccc(O)cc1` (centres unmarked) [Compound 15, butytolactone IV], the “AChE IR, %” value in experiment [1] is 13.3 ± 5.5%. Also, in experiment [2] (setting [4]), the half-inhibitory concentration (IC50) is over 100 µM. In addition, in experiment [2], the “BChE IR, %” value is on record as 33.5 ± 2.3%.
Take `COc1ccc2c3c1O[C@H]1C[C@@H](O)C=C[C@@]31CCN(C)C2` [Galantamine, reference compound]: the “BChE IR, %” value in experiment [2] is 72.4 ± 1.2%; in experiment [2] (listed as galantamine), 72.4%.
